Patent US10711041B2, “Lyophilisate containing a cyclic peptide of formula X1-[sequence]-X2” (priority 2013, dated 2020)
Bridges are numbered along the chain shown (N, C = ends). Where no end group is shown, it is not given here.

System: donor lung of a pig
Test: Ex vivo lung perfusion (EVLP) of pig donor lungs simulating lung transplantation
Method: Brain-dead pigs were brought into back position and a vertical sternotomy was carried out. The pericardium and both pleural cavities were opened. The lower and upper cavial venes were embraced. An inflow catheter was inserted into the lung artery by means of a purse-string suture in the right ventricular discharging tract. An inflow occlusion was obtained by connecting the lower and upper cavial venes, discharge occlusion by stapling off the aorta. The lungs then were protected by a prophylactic rinsing with cold, isotonic conservation solution (50 ml per kg body weight of the pig, comprising potassium ions, sodium ions, magnesium ions, calcium ions, chloride ions, dextran, glucose, buffer ions) through the inflow catheter. Incision of the left heart tube yields discharge. The lungs were aerated during that time period with 50% oxygen and ice sludge was given into both pleural cavities and into the mediastinum.
The explanation technique in sum was the removal with heart and esophagus according to the following steps: • a) Dissection of the soft tissue bridges to the thoracic cavity at both sides of the trachea. • b) Transsection of both pulmonal ligaments (very deep, difficult exposure), then of VCI, of the low thoracic aorta ascendens, or the esophagus, respectively. • c) Blunt-separation of residual mediastinal adhesions. • d) Entire distension of the donor lung before the tracheal closure with a clip.
After explantation the lungs were winded into gauze, put into an ice bag, filled with low-potassium-dextran-extracellular solution and stored at 4° C. for 18 to 24 hours.
For the ex-vivo lung conditioning the EVLP-technique was used ([…]). […] During the EVLP the lung function may be assessed regularly regarding key indicators. […]
The processing of the donor lung from the pig was started with sewing on a funnel-shaped tube from Silastic with a pressure-monitored catheter, implemented into the left atrial cuff (LA), for openly splinting the LA and for maintaining a closed perfusion circulation. […]

[1] = inhalation 1 mg/kg, vs Water for Injection

Compound	arterio-venous pO2 difference ΔpO2 [1]	dynamic lung conformity (compliance) [1]	effects regarding the lung
C[C@@H]1NC(=O)CNC(=O)[C@H](CCC(=O)O)NC(=O)[C@@H]2CCCN2C(=O)[C@H]([C@@H](C)O)NC(=O)[C@H](CCC(=O)O)NC(=O)[C@H](CCCNC(=N)N)NC(=O)[C@H](CCC(N)=O)NC(=O)CNC(=O)[C@@H](N)CSSC[C@@H](C(=O)O)NC(=O)[C@H](Cc2ccc(O)cc2)NC(=O)[C@H](Cc2c[nH]c3ccccc23)NC(=O)[C@@H]2CCCN2C(=O)[C@H](CCCCN)NC(=O)[C@H](C)NC(=O)[C@H](CCC(=O)O)NC1=O [SEQ ID NO: 1]	improved	improved	–
Cyclo(CGQREAPAGAAAKPWYC) (disulfide 1-17) [SEQ ID NO: 7, reference compound]	–	–	no improving effects
